Each block holds one compound with its values, some of them ahead of it.
Legend:
[1] = biological target: T1, Inhibitor of nuclear factor kappa-B kinase subunit epsilon (Homo sapiens) (UniProt Q14164); assay: Selectivity interaction (ActivX KiNativ screen (kinase selectivity in THP-1 cell lysates)) EUB0000639a IKBKE; format: subcellular; conditions: lysate, at 5 µM
T1 sequence (whole entry): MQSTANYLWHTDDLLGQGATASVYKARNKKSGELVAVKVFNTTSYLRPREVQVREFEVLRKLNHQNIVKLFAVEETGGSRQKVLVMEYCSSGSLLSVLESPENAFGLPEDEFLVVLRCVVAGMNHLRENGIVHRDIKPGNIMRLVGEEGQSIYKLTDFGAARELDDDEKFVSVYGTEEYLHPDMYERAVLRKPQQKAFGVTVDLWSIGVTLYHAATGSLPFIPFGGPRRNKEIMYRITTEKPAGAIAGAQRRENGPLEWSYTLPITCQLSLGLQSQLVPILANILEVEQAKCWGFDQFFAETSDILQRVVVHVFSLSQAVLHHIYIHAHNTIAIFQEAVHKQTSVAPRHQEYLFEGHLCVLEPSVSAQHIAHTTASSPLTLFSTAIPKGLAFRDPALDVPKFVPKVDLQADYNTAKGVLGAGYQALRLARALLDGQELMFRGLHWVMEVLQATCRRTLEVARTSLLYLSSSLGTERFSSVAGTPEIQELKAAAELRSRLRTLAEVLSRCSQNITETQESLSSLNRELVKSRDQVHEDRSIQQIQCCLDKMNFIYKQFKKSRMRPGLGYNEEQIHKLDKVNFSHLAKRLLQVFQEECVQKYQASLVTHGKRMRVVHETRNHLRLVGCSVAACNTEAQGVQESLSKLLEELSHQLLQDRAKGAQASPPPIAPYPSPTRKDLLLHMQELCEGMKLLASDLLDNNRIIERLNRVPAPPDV

[2] = biological target: T2, Ephrin type-A receptor 8 (Homo sapiens) (UniProt P29322); assay: Selectivity interaction (KinomeScan (DiscoverX)) EUB0000595a EPHA8; conditions: at 10 µM
T2 sequence (whole entry): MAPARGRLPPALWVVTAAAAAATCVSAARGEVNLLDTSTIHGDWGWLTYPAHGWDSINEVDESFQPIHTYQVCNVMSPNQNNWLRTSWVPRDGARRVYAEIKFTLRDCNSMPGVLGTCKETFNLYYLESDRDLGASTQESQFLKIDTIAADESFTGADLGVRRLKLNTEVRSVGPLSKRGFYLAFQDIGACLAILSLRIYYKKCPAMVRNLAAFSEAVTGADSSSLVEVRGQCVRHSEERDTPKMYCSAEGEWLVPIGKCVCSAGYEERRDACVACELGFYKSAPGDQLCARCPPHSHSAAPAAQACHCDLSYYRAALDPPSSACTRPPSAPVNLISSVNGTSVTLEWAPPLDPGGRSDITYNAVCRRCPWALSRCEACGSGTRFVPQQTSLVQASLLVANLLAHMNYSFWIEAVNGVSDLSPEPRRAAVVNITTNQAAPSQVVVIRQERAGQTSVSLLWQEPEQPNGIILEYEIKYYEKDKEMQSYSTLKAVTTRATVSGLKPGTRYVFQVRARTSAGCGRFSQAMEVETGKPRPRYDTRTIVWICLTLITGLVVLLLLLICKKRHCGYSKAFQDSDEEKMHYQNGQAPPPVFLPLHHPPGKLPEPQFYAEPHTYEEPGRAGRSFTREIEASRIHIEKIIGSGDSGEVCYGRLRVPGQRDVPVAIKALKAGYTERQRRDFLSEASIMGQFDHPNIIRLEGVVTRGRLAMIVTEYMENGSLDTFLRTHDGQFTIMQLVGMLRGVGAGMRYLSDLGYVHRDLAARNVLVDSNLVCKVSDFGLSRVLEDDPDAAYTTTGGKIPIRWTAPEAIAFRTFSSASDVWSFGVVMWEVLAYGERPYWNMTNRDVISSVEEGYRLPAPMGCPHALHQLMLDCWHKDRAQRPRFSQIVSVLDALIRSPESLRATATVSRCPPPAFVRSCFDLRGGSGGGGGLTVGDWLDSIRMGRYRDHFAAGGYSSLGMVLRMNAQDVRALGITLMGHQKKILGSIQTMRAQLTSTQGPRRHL

[3] = Selectivity interaction (KinomeScan (DiscoverX)) EUB0001619a CDPK1; conditions: at 1 µM
[4] = test system: Tyrosine-protein kinase ABL1 (Homo sapiens), P00519 [F317I]; assay: Selectivity interaction (KinomeScan (DiscoverX)) EUB0000607a ABL1; conditions: at 10 µM
Sequence of Tyrosine-protein kinase ABL1 (Homo sapiens), P00519 [F317I] (P00519 whole entry F317I): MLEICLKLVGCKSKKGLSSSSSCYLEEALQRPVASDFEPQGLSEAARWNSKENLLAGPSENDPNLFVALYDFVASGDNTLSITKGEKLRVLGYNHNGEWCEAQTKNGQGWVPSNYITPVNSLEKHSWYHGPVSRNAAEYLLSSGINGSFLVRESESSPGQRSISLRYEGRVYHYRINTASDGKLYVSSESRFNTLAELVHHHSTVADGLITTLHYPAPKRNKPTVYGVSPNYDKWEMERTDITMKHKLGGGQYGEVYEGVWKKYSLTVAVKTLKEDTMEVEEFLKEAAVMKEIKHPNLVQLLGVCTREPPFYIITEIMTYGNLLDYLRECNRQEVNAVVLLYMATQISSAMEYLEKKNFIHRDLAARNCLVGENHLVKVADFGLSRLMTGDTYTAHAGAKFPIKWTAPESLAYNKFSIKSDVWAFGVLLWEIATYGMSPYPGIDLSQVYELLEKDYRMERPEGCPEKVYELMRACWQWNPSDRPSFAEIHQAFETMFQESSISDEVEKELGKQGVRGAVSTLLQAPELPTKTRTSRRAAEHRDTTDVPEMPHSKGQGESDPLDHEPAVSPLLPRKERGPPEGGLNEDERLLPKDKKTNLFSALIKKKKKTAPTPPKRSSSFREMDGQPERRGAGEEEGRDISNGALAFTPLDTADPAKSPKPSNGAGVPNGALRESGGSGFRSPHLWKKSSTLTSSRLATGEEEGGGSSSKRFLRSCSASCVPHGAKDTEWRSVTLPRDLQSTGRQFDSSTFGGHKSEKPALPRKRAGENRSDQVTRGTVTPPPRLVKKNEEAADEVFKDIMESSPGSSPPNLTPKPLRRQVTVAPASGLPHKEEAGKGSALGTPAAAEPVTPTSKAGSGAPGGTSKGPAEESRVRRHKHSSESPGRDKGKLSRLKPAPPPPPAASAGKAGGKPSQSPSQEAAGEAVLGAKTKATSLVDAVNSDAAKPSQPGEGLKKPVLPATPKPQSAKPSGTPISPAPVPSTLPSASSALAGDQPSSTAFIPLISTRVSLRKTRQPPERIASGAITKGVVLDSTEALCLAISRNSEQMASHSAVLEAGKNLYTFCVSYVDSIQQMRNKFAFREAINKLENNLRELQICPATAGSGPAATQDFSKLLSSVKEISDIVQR

[5] = biological target: T3, Serine/threonine-protein kinase LATS1 (Homo sapiens) (UniProt O95835); assay: Selectivity interaction (Kinase panel (KiNativ target engagement assay in Jurkat cells)) EUB0001635a LATS1; format: cell-based; conditions: at 1 µM
T3 sequence (whole entry): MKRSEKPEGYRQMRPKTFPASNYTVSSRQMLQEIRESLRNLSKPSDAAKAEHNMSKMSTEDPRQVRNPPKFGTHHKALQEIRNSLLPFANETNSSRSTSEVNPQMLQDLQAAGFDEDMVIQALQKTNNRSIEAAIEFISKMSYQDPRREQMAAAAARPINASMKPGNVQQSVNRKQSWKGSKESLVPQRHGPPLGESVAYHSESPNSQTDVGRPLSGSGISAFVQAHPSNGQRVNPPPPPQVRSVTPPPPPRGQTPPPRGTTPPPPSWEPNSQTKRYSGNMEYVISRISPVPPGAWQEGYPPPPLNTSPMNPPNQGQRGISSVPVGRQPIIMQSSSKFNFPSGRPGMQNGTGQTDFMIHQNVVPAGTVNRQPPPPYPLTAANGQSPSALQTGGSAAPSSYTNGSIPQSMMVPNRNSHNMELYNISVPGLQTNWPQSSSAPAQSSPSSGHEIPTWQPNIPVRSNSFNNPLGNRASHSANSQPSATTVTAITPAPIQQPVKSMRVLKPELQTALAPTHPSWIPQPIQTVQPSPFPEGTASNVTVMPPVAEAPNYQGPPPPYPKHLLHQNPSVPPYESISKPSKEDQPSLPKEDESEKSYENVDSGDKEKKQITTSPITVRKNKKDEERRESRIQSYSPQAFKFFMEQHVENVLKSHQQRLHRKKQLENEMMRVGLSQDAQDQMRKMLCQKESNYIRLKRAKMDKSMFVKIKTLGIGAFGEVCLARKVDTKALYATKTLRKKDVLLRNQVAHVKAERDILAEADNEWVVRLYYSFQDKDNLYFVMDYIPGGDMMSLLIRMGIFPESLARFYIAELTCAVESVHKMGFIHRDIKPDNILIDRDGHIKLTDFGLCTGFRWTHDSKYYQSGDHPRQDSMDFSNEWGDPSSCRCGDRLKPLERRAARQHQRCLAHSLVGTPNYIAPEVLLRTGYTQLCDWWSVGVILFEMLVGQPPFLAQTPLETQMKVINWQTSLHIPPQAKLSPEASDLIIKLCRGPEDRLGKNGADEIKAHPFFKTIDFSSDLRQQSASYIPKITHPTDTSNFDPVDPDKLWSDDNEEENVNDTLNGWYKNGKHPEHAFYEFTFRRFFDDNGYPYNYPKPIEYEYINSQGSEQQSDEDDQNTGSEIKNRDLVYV

% of inhibition [1]: 26.2%
SMILES: CC[C@@H]1[C@H](F)C(=O)N[C@@H]1COc1nccc2cc(C(N)=O)c(OC)cc12 [ZIMLOVISERTIB]

SMILES: COCC(=O)NC/C=C/c1ccc2ncnc(Nc3ccc(Oc4ccc(C)nc4)c(C)c3)c2c1 [CP-724714]
% of control [2]: 98%

SMILES: N#Cc1cccc(-c2c[nH]c3ncnc(N4CCOCC4)c23)c1
% of control [3]: 78%

SMILES: CNC(=O)Nc1ccc(-c2nc(N3CC4CCC(C3)O4)c3cnn(C4CCC5(CC4)OCCO5)c3n2)cc1
% of control [4]: 100%

SMILES: C=CC(=O)Nc1ccc(C(=O)Nc2[nH]nc3c2CN(C(=O)N[C@H](CN(C)C)c2ccccc2)C3(C)C)cc1
% of engagement [5]: 3.9%
